# Experimental data as given in the supplement of paper PMC10307832.
# Tests used:
# Test in all cases: relative viability (nuclei count vs DMSO), 5 days (fraction); higher = more cells survive
# NCI-H596 = tested on: NCI-H596
# Outline: (§1)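 Values are medians from duplicate plates. Each reflects relative viability, defined as the nuclei count of treated wells over that of vehicle wells. Lung cancer cell lines in 1536-well plates were pin-tool dosed one day after seeding with one drug alone or with a fixed anchor-drug dose plus five library-drug doses (not always all listed) in √10 steps, then fixed, stained and imaged at 4× after 5 days.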
# EBC-1 = tested on: EBC-1
# Outline: as §1
# NCI-H1666 = tested on: NCI-H1666
# Outline: as §1
# NCI-H661 = tested on: NCI-H661
# Outline: as §1
# IA-LM = tested on: IA-LM
# Outline: as §1
# Calu-6 = tested on: Calu-6
# Outline: as §1
# NCI-H1299 = tested on: NCI-H1299
# Outline: as §1
# NCI-H1944 = tested on: NCI-H1944
# Outline: as §1
# SK-LU-1 = tested on: SK-LU-1
# Outline: as §1
# NCI-H1703 = tested on: NCI-H1703
# Outline: as §1
# PC-14 = tested on: PC-14
# Outline: as §1
# NCI-H1648 = tested on: NCI-H1648
# Outline: as §1
# A549 = tested on: A549
# Outline: as §1
smiles,measurement,setting,value
Cc1cn(-c2cc(NC(=O)c3ccc(C)c(Nc4nccc(-c5cccnc5)n4)c3)cc(C(F)(F)F)c2)cn1 [Nilotinib] + O=C(c1cc(Cc2n[nH]c(=O)c3ccccc23)ccc1F)N1CCN(C(=O)C2CC2)CC1 [Olaparib] (partner 8 µM),relative viability,NCI-H596; first compound 0.001 µM,0.651
same,relative viability,NCI-H596; first compound 0.003162 µM,0.702
same,relative viability,NCI-H596; first compound 0.01 µM,0.711
same,relative viability,NCI-H596; first compound 0.03162 µM,0.646
same,relative viability,NCI-H596; first compound 0.1 µM,0.671
same,relative viability,EBC-1; first compound 0.001 µM,0.67
same,relative viability,EBC-1; first compound 0.003162 µM,0.804
same,relative viability,EBC-1; first compound 0.01 µM,0.755
same,relative viability,EBC-1; first compound 0.03162 µM,0.661
same,relative viability,EBC-1; first compound 0.1 µM,0.631
same,relative viability,NCI-H1666; first compound 0.001 µM,0.71
same,relative viability,NCI-H1666; first compound 0.003162 µM,0.805
same,relative viability,NCI-H1666; first compound 0.01 µM,0.803
same,relative viability,NCI-H1666; first compound 0.03162 µM,0.778
same,relative viability,NCI-H1666; first compound 0.1 µM,0.754
same,relative viability,NCI-H661; first compound 0.001 µM,0.754
same,relative viability,NCI-H661; first compound 0.003162 µM,0.893
same,relative viability,NCI-H661; first compound 0.01 µM,0.949
same,relative viability,NCI-H661; first compound 0.03162 µM,0.672
same,relative viability,NCI-H661; first compound 0.1 µM,0.748
same,relative viability,IA-LM; first compound 0.001 µM,0.659
same,relative viability,IA-LM; first compound 0.003162 µM,0.864
same,relative viability,IA-LM; first compound 0.01 µM,0.758
same,relative viability,IA-LM; first compound 0.03162 µM,0.664
same,relative viability,IA-LM; first compound 0.1 µM,0.777
same,relative viability,Calu-6; first compound 0.001 µM,0.525
same,relative viability,Calu-6; first compound 0.003162 µM,0.693
same,relative viability,Calu-6; first compound 0.01 µM,0.583
same,relative viability,Calu-6; first compound 0.03162 µM,0.409
same,relative viability,Calu-6; first compound 0.1 µM,0.494
same,relative viability,NCI-H1299; first compound 0.001 µM,0.886
same,relative viability,NCI-H1299; first compound 0.003162 µM,1.01
same,relative viability,NCI-H1299; first compound 0.01 µM,0.985
same,relative viability,NCI-H1299; first compound 0.03162 µM,0.948
same,relative viability,NCI-H1299; first compound 0.1 µM,0.664
same,relative viability,NCI-H1944; first compound 0.001 µM,0.379
same,relative viability,NCI-H1944; first compound 0.003162 µM,0.397
same,relative viability,NCI-H1944; first compound 0.01 µM,0.462
same,relative viability,NCI-H1944; first compound 0.03162 µM,0.435
same,relative viability,NCI-H1944; first compound 0.1 µM,0.45
same,relative viability,SK-LU-1; first compound 0.001 µM,0.408
same,relative viability,SK-LU-1; first compound 0.003162 µM,0.469
same,relative viability,SK-LU-1; first compound 0.01 µM,0.541
same,relative viability,SK-LU-1; first compound 0.03162 µM,0.354
same,relative viability,SK-LU-1; first compound 0.1 µM,0.444
same,relative viability,NCI-H1703; first compound 0.001 µM,0.302
same,relative viability,NCI-H1703; first compound 0.003162 µM,0.201
same,relative viability,NCI-H1703; first compound 0.01 µM,0.234
same,relative viability,NCI-H1703; first compound 0.03162 µM,0.174
same,relative viability,NCI-H1703; first compound 0.1 µM,0.212
same,relative viability,PC-14; first compound 0.001 µM,0.266
same,relative viability,PC-14; first compound 0.003162 µM,0.253
same,relative viability,PC-14; first compound 0.01 µM,0.264
same,relative viability,PC-14; first compound 0.03162 µM,0.264
same,relative viability,PC-14; first compound 0.1 µM,0.339
same,relative viability,NCI-H1648; first compound 0.001 µM,0.577
same,relative viability,NCI-H1648; first compound 0.003162 µM,0.909
same,relative viability,NCI-H1648; first compound 0.01 µM,0.903
same,relative viability,NCI-H1648; first compound 0.03162 µM,0.621
same,relative viability,NCI-H1648; first compound 0.1 µM,0.893
same,relative viability,A549; first compound 0.001 µM,0.249
same,relative viability,A549; first compound 0.003162 µM,0.377
same,relative viability,A549; first compound 0.01 µM,0.334
same,relative viability,A549; first compound 0.03162 µM,0.241
same,relative viability,A549; first compound 0.1 µM,0.117
